In ChEMBL document CHEMBL3885861, “Open TG-GATES”:

Species on record: Rattus norvegicus
Assay: Open TG-GATES - Regimen: Single
Type: toxicity, organism-based, Sprague-Dawley
Set-up: regimen Single, gender Male, age 6 weeks
Settings: in vivo, ip, route intraperitoneal injection; for Bas / Eos / Ht / Lym / MCHC / MCV / Mono / Neu / PT / Plat / RBC / Ret / WBC / APTT / Fbg / Hb / MCH: tissue Blood; for KIDNEY_L / KIDNEY_R / KIDNEY_TOTAL: tissue Kidney; for LIVER: tissue Liver; for ALP / ALT / AST / BUN / CRE / DBIL / IP / K / LDH / PL / RALB / TBIL / TC / TG / TP / gamma-GTP / GLC / Ca / Na: tissue Plasma
[1] = 0 mg/kg, 3 h, dose 0 ug/Kg, dose level Control
[2] = 0 mg/kg, 6 h, dose 0 ug/Kg, dose level Control
[3] = 0 mg/kg, 9 h, dose 0 ug/Kg, dose level Control
[4] = 0 mg/kg, 24 h, dose 0 ug/Kg, dose level Control
[5] = 0.01 mg/kg, 3 h, dose 10 ug/Kg, dose level Low
[6] = 0.01 mg/kg, 6 h, dose 10 ug/Kg, dose level Low
[7] = 0.01 mg/kg, 9 h, dose 10 ug/Kg, dose level Low
[8] = 0.01 mg/kg, 24 h, dose 10 ug/Kg, dose level Low

LPS
TERMINAL_BW [1]: 194.6 g
Bas [1]: 0.3%
Eos [1]: 0.7%
Ht [1]: 40.7%
Lym [1]: 72%
MCHC [1]: 32.8%
MCV [1]: 63.3 fL
Mono [1]: 4%
Neu [1]: 21.3%
PT [1]: 15.7 s
Plat [1]: 123.5 x10_4/uL
RBC [1]: 644.3 x10_4/ul
Ret [1]: 9.4%
WBC [1]: 91.5 x10_2/uL
KIDNEY_L [1]: 0.9 g
KIDNEY_R [1]: 0.9 g
KIDNEY_TOTAL [1]: 1.8 g
LIVER [1]: 8.6 g
ALP [1]: 1094.7 IU/L
ALT [1]: 41.7 IU/L
AST [1]: 78.3 IU/L
BUN [1]: 8.7 mg/dL
CRE [1]: 0.2 mg/dL
DBIL [1]: 0.01 mg/dL
IP [1]: 9.2 mg/dL
K [1]: 4 meq/L
LDH [1]: 110 IU/L
PL [1]: 136.3 mg/dL
RALB [1]: 2.5 g/dL
TBIL [1]: 0.0467 mg/dL
TC [1]: 76 mg/dL
TG [1]: 41.3 mg/dL
TP [1]: 5.3 g/dL
gamma-GTP [1]: 1 IU/L
TERMINAL_BW [2]: 195.4 g
APTT [2]: 18.1 s
Bas [2]: 0%
Eos [2]: 0.3%
Fbg [2]: 298.7 mg/dL
Hb [2]: 12.9 g/dL
Ht [2]: 39.5%
Lym [2]: 71.3%
MCHC [2]: 32.6%
MCV [2]: 65.8 fL
Mono [2]: 2.3%
Neu [2]: 25%
PT [2]: 15.7 s
Plat [2]: 114.9 x10_4/uL
RBC [2]: 601.3 x10_4/ul
Ret [2]: 9.6%
WBC [2]: 101.7 x10_2/uL
KIDNEY_L [2]: 0.9 g
KIDNEY_R [2]: 0.9 g
KIDNEY_TOTAL [2]: 1.7 g
LIVER [2]: 7.9 g
ALP [2]: 1269.3 IU/L
ALT [2]: 37.7 IU/L
AST [2]: 75.7 IU/L
BUN [2]: 7.3 mg/dL
CRE [2]: 0.2 mg/dL
DBIL [2]: 0.01 mg/dL
GLC [2]: 178.3 mg/dL
IP [2]: 10 mg/dL
K [2]: 3.7 meq/L
LDH [2]: 74 IU/L
PL [2]: 138.7 mg/dL
RALB [2]: 2.5 g/dL
TBIL [2]: 0.0433 mg/dL
TC [2]: 79.3 mg/dL
TG [2]: 24.7 mg/dL
TP [2]: 5.4 g/dL
gamma-GTP [2]: 1 IU/L
TERMINAL_BW [3]: 191.3 g
APTT [3]: 17.1 s
Bas [3]: 0%
Eos [3]: 1%
Fbg [3]: 304.3 mg/dL
Ht [3]: 38.4%
Lym [3]: 63.3%
MCHC [3]: 32.8%
Mono [3]: 2%
Neu [3]: 33.7%
Plat [3]: 116.1 x10_4/uL
RBC [3]: 624 x10_4/ul
Ret [3]: 8.1%
WBC [3]: 71.4 x10_2/uL
KIDNEY_L [3]: 0.9 g
KIDNEY_R [3]: 0.9 g
KIDNEY_TOTAL [3]: 1.8 g
LIVER [3]: 7 g
ALP [3]: 1080.7 IU/L
ALT [3]: 48 IU/L
AST [3]: 79 IU/L
BUN [3]: 8.3 mg/dL
CRE [3]: 0.2 mg/dL
Ca [3]: 10 mg/dL
DBIL [3]: 0.0033 mg/dL
GLC [3]: 165 mg/dL
IP [3]: 9.5 mg/dL
K [3]: 3.8 meq/L
LDH [3]: 53.7 IU/L
PL [3]: 124.7 mg/dL
RALB [3]: 2.4 g/dL
TBIL [3]: 0.0467 mg/dL
TC [3]: 73.3 mg/dL
TG [3]: 13.3 mg/dL
TP [3]: 5.2 g/dL
gamma-GTP [3]: 1 IU/L
TERMINAL_BW [4]: 209.1 g
Bas [4]: 0.3%
Eos [4]: 1.3%
Fbg [4]: 302.3 mg/dL
Hb [4]: 12.9 g/dL
Ht [4]: 39.4%
Lym [4]: 76.3%
MCH [4]: 21 pg
MCHC [4]: 32.8%
MCV [4]: 64 fL
Mono [4]: 3.7%
Neu [4]: 17.3%
PT [4]: 15.2 s
Plat [4]: 115.4 x10_4/uL
RBC [4]: 616.3 x10_4/ul
Ret [4]: 8.6%
WBC [4]: 115.5 x10_2/uL
KIDNEY_L [4]: 0.9 g
KIDNEY_R [4]: 0.9 g
KIDNEY_TOTAL [4]: 1.8 g
LIVER [4]: 9.7 g
ALP [4]: 1572.7 IU/L
ALT [4]: 48.3 IU/L
AST [4]: 78 IU/L
BUN [4]: 15 mg/dL
CRE [4]: 0.2 mg/dL
DBIL [4]: 0.01 mg/dL
GLC [4]: 170.7 mg/dL
IP [4]: 8.6 mg/dL
K [4]: 4.4 meq/L
LDH [4]: 86.7 IU/L
PL [4]: 171.3 mg/dL
RALB [4]: 2.6 g/dL
TBIL [4]: 0.0533 mg/dL
TC [4]: 98.7 mg/dL
TG [4]: 55.3 mg/dL
TP [4]: 5.7 g/dL
gamma-GTP [4]: 1 IU/L
TERMINAL_BW [5]: 192 g
Bas [5]: 0%
Eos [5]: 0%
Fbg [5]: 249 mg/dL
Hb [5]: 12.9 g/dL
Lym [5]: 66%
MCH [5]: 21 pg
MCHC [5]: 32.9%
MCV [5]: 63.9 fL
Mono [5]: 2.3%
Neu [5]: 30.3%
PT [5]: 15.6 s
Plat [5]: 106.2 x10_4/uL
RBC [5]: 614.3 x10_4/ul
Ret [5]: 9.4%
WBC [5]: 59.5 x10_2/uL
KIDNEY_L [5]: 0.9 g
KIDNEY_R [5]: 0.9 g
KIDNEY_TOTAL [5]: 1.8 g
LIVER [5]: 8.5 g
ALP [5]: 1371 IU/L
ALT [5]: 39.3 IU/L
AST [5]: 80.7 IU/L
BUN [5]: 9.3 mg/dL
CRE [5]: 0.2 mg/dL
DBIL [5]: 0.0033 mg/dL
GLC [5]: 151.7 mg/dL
IP [5]: 9.1 mg/dL
K [5]: 3.9 meq/L
LDH [5]: 87.7 IU/L
PL [5]: 141.3 mg/dL
RALB [5]: 2.4 g/dL
TBIL [5]: 0.0433 mg/dL
TC [5]: 75.3 mg/dL
TG [5]: 50.7 mg/dL
TP [5]: 5.2 g/dL
gamma-GTP [5]: 0.7 IU/L
TERMINAL_BW [6]: 188.9 g
APTT [6]: 20.9 s
Bas [6]: 0%
Eos [6]: 1%
Fbg [6]: 308 mg/dL
Ht [6]: 40.2%
Lym [6]: 27%
MCH [6]: 21 pg
MCV [6]: 63.3 fL
Mono [6]: 1%
Neu [6]: 71%
Plat [6]: 84.5 x10_4/uL
RBC [6]: 634.3 x10_4/ul
Ret [6]: 7.8%
WBC [6]: 67.1 x10_2/uL
KIDNEY_L [6]: 0.9 g
KIDNEY_R [6]: 0.9 g
KIDNEY_TOTAL [6]: 1.7 g
LIVER [6]: 7.6 g
ALP [6]: 1287.3 IU/L
ALT [6]: 58.7 IU/L
AST [6]: 96.7 IU/L
BUN [6]: 8.3 mg/dL
CRE [6]: 0.2 mg/dL
Ca [6]: 9.9 mg/dL
DBIL [6]: 0.0167 mg/dL
GLC [6]: 150.7 mg/dL
IP [6]: 9.5 mg/dL
K [6]: 3.9 meq/L
LDH [6]: 75.3 IU/L
Na [6]: 139.7 meq/L
PL [6]: 154.3 mg/dL
RALB [6]: 2.5 g/dL
TBIL [6]: 0.0667 mg/dL
TC [6]: 91.7 mg/dL
TG [6]: 27.3 mg/dL
TP [6]: 5.4 g/dL
gamma-GTP [6]: 1.7 IU/L
TERMINAL_BW [7]: 187.9 g
APTT [7]: 16.6 s
Bas [7]: 0%
Eos [7]: 0%
Fbg [7]: 373 mg/dL
Ht [7]: 40.9%
Lym [7]: 58.3%
MCHC [7]: 33%
MCV [7]: 64.5 fL
Mono [7]: 2%
Neu [7]: 38.7%
PT [7]: 16 s
Plat [7]: 105.1 x10_4/uL
RBC [7]: 633.7 x10_4/ul
Ret [7]: 8.7%
WBC [7]: 86.6 x10_2/uL
KIDNEY_L [7]: 0.9 g
KIDNEY_R [7]: 0.8 g
KIDNEY_TOTAL [7]: 1.7 g
LIVER [7]: 7.1 g
ALP [7]: 1456.3 IU/L
ALT [7]: 37 IU/L
AST [7]: 77.3 IU/L
BUN [7]: 6.7 mg/dL
CRE [7]: 0.2 mg/dL
DBIL [7]: 0.0067 mg/dL
GLC [7]: 162.7 mg/dL
IP [7]: 9.8 mg/dL
K [7]: 3.6 meq/L
LDH [7]: 61 IU/L
Na [7]: 143.7 meq/L
PL [7]: 151 mg/dL
RALB [7]: 2.5 g/dL
TBIL [7]: 0.0567 mg/dL
TC [7]: 89 mg/dL
TG [7]: 21 mg/dL
TP [7]: 5.4 g/dL
gamma-GTP [7]: 1 IU/L
TERMINAL_BW [8]: 198.5 g
Bas [8]: 0%
Eos [8]: 1%
Fbg [8]: 435.3 mg/dL
Hb [8]: 13.6 g/dL
Lym [8]: 66.3%
MCH [8]: 21 pg
MCHC [8]: 32.7%
MCV [8]: 64.2 fL
Mono [8]: 2.3%
Neu [8]: 29%
PT [8]: 14.6 s
Plat [8]: 77.7 x10_4/uL
RBC [8]: 646.7 x10_4/ul
Ret [8]: 7.3%
WBC [8]: 85.5 x10_2/uL
KIDNEY_L [8]: 0.9 g
KIDNEY_R [8]: 0.9 g
KIDNEY_TOTAL [8]: 1.8 g
LIVER [8]: 9.1 g
ALP [8]: 2203 IU/L
ALT [8]: 39.3 IU/L
AST [8]: 71.7 IU/L
BUN [8]: 16.3 mg/dL
CRE [8]: 0.2 mg/dL
DBIL [8]: 0.01 mg/dL
GLC [8]: 189 mg/dL
IP [8]: 8.8 mg/dL
K [8]: 4.5 meq/L
LDH [8]: 77.3 IU/L
PL [8]: 168 mg/dL
RALB [8]: 2.6 g/dL
TBIL [8]: 0.0633 mg/dL
TC [8]: 94.7 mg/dL
TG [8]: 52.3 mg/dL
TP [8]: 5.6 g/dL
gamma-GTP [8]: 1 IU/L
TERMINAL_BW (0.3 mg/kg, 3 h, dose 300 ug/Kg, dose level Middle): 194.5 g
